This is an account of results in ChEMBL document CHEMBL3352334, “Design, synthesis and pharmacological evaluation of 2-(thiazol-2-amino)-4-arylaminopyrimidines as potent anaplastic lymphoma kinase (ALK) inhibitors” (Eur J Med Chem, 2014).

pIC50: −log10 of the molar value.

Test [1] has as its target Tyrosine-protein kinase ABL1 (Homo sapiens) (UniProt P00519). Kind of test: Inhibition of purified Abl (unknown origin) at 1 uM after 60 mins by ELISA kinase assay.
For test [2], the target named is T1, ALK tyrosine kinase receptor (Homo sapiens, UniProt Q9UM73). Put plainly: Inhibition of purified ALK (unknown origin) after 60 mins by ELISA kinase assay. (In general: ELISA stands for enzyme-linked immunosorbent assay.)
Test [3] deals with Proto-oncogene tyrosine-protein kinase Src (Homo sapiens) (UniProt P12931). Kind of test: Inhibition of purified c-Src (unknown origin) at 1 uM after 60 mins by ELISA kinase assay.
Chain of Proto-oncogene tyrosine-protein kinase Src (Homo sapiens) (P12931 2-536 limits assumed): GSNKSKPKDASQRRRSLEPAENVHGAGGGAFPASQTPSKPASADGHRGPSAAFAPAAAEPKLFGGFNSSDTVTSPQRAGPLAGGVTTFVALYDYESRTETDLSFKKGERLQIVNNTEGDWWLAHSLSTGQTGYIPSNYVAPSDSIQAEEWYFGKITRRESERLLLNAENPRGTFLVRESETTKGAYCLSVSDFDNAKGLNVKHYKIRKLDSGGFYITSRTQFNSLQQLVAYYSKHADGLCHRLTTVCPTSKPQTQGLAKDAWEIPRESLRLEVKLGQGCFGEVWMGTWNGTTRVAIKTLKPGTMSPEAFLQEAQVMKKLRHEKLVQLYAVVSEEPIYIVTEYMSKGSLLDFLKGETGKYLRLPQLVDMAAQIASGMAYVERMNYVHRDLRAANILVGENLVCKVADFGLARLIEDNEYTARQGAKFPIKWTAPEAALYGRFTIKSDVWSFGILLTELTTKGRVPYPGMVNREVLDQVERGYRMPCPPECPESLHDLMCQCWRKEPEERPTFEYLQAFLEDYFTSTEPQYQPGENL
The target in test [4] is T1, ALK tyrosine kinase receptor. The settings on record: 1 uM.
Target sequence in this assay (Q9UM73 19-1620 limits assumed): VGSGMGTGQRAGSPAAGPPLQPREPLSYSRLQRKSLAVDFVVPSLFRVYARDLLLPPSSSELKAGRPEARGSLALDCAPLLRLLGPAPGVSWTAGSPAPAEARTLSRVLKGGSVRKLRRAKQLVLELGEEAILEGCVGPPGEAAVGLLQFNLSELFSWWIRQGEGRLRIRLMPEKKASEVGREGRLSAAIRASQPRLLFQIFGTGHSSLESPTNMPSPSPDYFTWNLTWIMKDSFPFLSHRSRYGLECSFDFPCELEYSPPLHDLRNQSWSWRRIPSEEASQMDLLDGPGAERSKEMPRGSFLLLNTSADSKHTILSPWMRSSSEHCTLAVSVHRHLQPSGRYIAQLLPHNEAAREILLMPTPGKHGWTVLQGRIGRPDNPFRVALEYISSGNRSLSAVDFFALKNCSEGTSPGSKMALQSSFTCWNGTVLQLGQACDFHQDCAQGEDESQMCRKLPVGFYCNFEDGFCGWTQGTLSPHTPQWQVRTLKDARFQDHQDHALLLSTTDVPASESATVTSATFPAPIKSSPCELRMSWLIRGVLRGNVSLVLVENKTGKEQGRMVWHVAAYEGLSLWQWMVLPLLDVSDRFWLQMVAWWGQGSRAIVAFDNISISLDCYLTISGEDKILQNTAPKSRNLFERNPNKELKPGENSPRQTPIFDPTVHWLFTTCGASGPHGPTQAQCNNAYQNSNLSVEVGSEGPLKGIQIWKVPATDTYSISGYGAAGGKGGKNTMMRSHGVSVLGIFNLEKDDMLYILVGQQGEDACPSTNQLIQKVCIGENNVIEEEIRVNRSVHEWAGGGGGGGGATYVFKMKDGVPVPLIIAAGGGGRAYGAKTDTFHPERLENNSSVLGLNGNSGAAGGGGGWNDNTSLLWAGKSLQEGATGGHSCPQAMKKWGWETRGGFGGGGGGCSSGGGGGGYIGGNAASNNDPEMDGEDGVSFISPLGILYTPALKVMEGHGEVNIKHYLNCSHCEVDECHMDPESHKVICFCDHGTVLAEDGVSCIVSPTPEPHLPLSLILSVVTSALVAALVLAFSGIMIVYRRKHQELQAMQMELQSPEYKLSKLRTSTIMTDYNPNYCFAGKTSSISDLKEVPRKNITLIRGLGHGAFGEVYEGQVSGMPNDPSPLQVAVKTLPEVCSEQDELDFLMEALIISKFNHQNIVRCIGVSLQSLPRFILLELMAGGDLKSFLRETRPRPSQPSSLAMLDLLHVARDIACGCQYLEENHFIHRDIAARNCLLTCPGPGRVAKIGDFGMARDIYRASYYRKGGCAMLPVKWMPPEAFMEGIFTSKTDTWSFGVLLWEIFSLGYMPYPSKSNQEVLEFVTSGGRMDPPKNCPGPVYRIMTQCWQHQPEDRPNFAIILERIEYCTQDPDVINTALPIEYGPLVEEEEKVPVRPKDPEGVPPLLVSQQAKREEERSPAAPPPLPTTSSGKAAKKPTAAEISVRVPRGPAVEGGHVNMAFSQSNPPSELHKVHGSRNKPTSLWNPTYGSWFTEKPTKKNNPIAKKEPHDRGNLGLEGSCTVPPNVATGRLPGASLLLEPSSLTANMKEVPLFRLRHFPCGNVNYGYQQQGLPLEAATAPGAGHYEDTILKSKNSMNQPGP
Description: Inhibition of purified ALK (unknown origin) at 1 uM after 60 mins by ELISA kinase assay
The target of test [5] is T2, Hepatocyte growth factor receptor (Homo sapiens, UniProt P08581). Kind of test: Inhibition of purified c-MET (unknown origin) after 60 mins by ELISA kinase assay.
T2 sequence (P08581 whole entry): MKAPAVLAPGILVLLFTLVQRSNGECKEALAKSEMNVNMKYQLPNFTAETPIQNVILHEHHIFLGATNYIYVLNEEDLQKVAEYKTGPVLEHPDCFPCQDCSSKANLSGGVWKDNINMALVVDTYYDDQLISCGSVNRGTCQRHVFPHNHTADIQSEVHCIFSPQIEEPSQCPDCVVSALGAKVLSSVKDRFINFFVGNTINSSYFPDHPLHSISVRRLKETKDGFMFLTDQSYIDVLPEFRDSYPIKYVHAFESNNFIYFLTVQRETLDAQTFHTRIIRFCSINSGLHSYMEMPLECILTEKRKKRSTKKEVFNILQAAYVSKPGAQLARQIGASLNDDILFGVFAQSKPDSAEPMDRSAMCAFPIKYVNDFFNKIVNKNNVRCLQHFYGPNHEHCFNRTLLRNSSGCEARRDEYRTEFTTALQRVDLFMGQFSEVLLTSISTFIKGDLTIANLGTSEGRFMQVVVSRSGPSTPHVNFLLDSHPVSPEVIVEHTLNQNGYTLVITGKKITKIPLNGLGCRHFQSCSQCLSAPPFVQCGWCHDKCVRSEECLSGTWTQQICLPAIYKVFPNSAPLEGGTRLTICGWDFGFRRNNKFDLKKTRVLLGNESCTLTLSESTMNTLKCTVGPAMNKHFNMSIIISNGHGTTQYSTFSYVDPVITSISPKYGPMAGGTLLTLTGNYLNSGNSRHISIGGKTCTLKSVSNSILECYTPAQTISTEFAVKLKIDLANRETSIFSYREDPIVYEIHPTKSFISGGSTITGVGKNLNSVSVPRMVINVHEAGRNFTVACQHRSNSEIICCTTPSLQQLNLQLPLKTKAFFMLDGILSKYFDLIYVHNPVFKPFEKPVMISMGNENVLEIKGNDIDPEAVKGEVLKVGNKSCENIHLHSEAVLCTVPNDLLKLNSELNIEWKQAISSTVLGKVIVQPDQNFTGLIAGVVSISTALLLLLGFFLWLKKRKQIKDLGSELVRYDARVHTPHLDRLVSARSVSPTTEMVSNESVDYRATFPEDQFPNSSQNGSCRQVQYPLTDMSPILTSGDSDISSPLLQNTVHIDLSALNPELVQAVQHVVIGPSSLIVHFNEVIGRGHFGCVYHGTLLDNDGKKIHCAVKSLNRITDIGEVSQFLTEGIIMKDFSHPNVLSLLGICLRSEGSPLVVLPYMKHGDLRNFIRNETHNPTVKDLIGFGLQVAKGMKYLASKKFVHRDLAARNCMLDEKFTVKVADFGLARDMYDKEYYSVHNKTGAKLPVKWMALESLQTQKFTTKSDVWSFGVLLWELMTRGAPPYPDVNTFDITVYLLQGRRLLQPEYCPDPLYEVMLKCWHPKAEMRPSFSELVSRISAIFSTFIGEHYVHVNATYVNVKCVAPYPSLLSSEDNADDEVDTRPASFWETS
The target of test [6] is Proto-oncogene tyrosine-protein kinase receptor Ret (Homo sapiens) (UniProt P07949). Put plainly: Inhibition of purified RET (unknown origin) at 1 uM after 60 mins by ELISA kinase assay.
For test [7], the target named is Receptor tyrosine-protein kinase erbB-4 (Homo sapiens) (UniProt Q15303). Kind of test: Inhibition of purified ErbB4 (unknown origin) at 1 uM after 60 mins by ELISA kinase assay.
Test [8] addresses T2, Hepatocyte growth factor receptor. Kind of test: Inhibition of purified c-MET (unknown origin) at 1 uM after 60 mins by ELISA kinase assay.
Test [9] deals with Receptor-type tyrosine-protein kinase FLT3 (Homo sapiens) (UniProt P36888). Put plainly: Inhibition of purified Flt-3 (unknown origin) at 1 uM after 60 mins by ELISA kinase assay.
In test [10] the target is Vascular endothelial growth factor receptor 1 (Homo sapiens) (UniProt P17948). Put plainly: Inhibition of purified Flt-1 (unknown origin) at 1 uM after 60 mins by ELISA kinase assay.
For test [11], the target named is Ephrin type-A receptor 2 (Homo sapiens) (UniProt P29317). Kind of test: Inhibition of purified EPH-A2 (unknown origin) at 1 uM after 60 mins by ELISA kinase assay.
The target in test [12] is Insulin-like growth factor 1 receptor (Homo sapiens) (UniProt P08069). Put plainly: Inhibition of purified IGF1R (unknown origin) at 1 uM after 60 mins by ELISA kinase assay.
Chain of Insulin-like growth factor 1 receptor (Homo sapiens) (P08069 31-736 limits assumed): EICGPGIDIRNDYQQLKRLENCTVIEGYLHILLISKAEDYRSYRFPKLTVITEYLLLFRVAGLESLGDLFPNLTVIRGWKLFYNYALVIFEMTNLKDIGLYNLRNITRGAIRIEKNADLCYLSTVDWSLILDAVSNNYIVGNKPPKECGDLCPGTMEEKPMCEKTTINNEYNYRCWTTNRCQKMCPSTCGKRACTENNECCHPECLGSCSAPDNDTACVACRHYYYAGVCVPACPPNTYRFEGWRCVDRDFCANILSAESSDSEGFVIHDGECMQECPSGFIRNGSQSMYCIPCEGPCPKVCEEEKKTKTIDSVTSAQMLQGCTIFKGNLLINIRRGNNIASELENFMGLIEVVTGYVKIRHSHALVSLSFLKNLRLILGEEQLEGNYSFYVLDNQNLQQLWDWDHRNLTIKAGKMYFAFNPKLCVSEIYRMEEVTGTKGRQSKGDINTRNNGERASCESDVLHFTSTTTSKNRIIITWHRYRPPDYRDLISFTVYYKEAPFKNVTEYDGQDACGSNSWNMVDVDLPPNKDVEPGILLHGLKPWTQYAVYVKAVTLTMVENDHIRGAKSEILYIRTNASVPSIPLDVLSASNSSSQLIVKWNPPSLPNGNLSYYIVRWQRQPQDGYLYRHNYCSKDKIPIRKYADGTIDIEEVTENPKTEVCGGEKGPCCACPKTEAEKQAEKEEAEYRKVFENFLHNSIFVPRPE
Chain of Insulin-like growth factor 1 receptor (Homo sapiens) (P08069 741-1367 limits assumed): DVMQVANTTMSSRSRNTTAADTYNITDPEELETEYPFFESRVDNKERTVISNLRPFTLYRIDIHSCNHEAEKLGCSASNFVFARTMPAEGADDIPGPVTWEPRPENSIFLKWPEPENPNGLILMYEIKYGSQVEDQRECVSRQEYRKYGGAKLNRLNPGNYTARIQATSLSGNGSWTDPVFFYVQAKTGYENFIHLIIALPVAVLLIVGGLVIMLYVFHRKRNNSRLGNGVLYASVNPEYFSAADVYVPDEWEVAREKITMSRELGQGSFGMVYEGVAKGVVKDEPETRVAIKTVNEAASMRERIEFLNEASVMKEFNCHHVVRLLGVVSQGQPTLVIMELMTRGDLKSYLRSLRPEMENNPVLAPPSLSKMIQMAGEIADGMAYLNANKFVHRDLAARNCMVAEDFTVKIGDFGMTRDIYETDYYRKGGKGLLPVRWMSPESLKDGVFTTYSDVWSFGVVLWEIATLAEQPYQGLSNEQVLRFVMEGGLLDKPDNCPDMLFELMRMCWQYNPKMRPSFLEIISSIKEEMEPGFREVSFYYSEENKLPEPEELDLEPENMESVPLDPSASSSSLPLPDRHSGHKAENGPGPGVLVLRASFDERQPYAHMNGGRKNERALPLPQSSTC
The target in test [13] is ALK tyrosine kinase receptor (Homo sapiens, UniProt Q9UM73, L1196M). Put plainly: Inhibition of purified ALK L1196M mutant (unknown origin) after 60 mins by ELISA kinase assay.
Chain of ALK tyrosine kinase receptor (Homo sapiens, UniProt Q9UM73, L1196M) (Q9UM73 19-1620 L1196M limits assumed): as the sequence (Q9UM73 19-1620 limits assumed) above, with L1178M counted along it
In test [14] the target is Receptor tyrosine-protein kinase erbB-2 (Homo sapiens) (UniProt P04626). Kind of test: Inhibition of purified ErbB2 (unknown origin) at 1 uM after 60 mins by ELISA kinase assay.
The target in test [15] is Epidermal growth factor receptor (Homo sapiens) (UniProt P00533). Put plainly: Inhibition of purified EGFR (unknown origin) at 1 uM after 60 mins by ELISA kinase assay.
For test [16], the target named is Fibroblast growth factor receptor 1 (Homo sapiens) (UniProt P11362). Put plainly: Inhibition of purified FGFR1 (unknown origin) at 0.1 uM after 60 mins by ELISA kinase assay.
Test [17] addresses T1, ALK tyrosine kinase receptor. Kind of test: Inhibition of ALK-mediated STAT3 phosphorylation in human H3122 cells. The format is cell-based.
Target sequence in this assay (Q9UM73 19-1620 limits assumed): as the sequence (Q9UM73 19-1620 limits assumed) above
A short description of test [18]: Antiproliferative activity against human SUP-M2 cells assessed as growth inhibition at 1000 nM after 72 hrs by SRB assay. The format is functional. The settings on record: SUP-M2, 72 h, read-out: GI.
Test [19] has as its target T1, ALK tyrosine kinase receptor. Kind of test: Inhibition of ALK phosphorylation in human H3122 cells. Format: cell-based.
Target sequence in this assay (Q9UM73 19-1620 limits assumed): as above
Test [20] concerns the target Insulin-like growth factor 1 receptor (Homo sapiens) (UniProt P08069). Put plainly: Inhibition of purified IGF1R (unknown origin) at 0.1 uM after 60 mins by ELISA kinase assay.
The target of test [21] is T1, ALK tyrosine kinase receptor. Kind of test: Inhibition of ALK-mediated AKT phosphorylation in human H3122 cells. Format: cell-based.
Target sequence in this assay (Q9UM73 19-1620 limits assumed): as above
In test [22] the target is Platelet-derived growth factor receptor beta (Homo sapiens) (UniProt P09619). Kind of test: Inhibition of purified PDGFRbeta (unknown origin) at 1 uM after 60 mins by ELISA kinase assay.
The target of test [23] is T1, ALK tyrosine kinase receptor. Put plainly: Inhibition of ALK-mediated ERK phosphorylation in human H3122 cells. Format: cell-based.
Target sequence in this assay (Q9UM73 19-1620 limits assumed): as above
The target of test [24] is Platelet-derived growth factor receptor alpha (Homo sapiens) (UniProt P16234). Put plainly: Inhibition of purified PDGFRalpha (unknown origin) at 1 uM after 60 mins by ELISA kinase assay.
Test [25] has as its target Vascular endothelial growth factor receptor 2 (Homo sapiens) (UniProt P35968). Kind of test: Inhibition of purified KDR (unknown origin) at 1 uM after 60 mins by ELISA kinase assay.
Test [26] has as its target Fibroblast growth factor receptor 1 (Homo sapiens) (UniProt P11362). Kind of test: Inhibition of purified FGFR1 (unknown origin) at 1 uM after 60 mins by ELISA kinase assay.
Test [27] can be described thus: Antiproliferative activity against human SUP-M2 cells assessed as growth inhibition at 200 nM after 72 hrs by SRB assay. The format is functional. To be noted: SUP-M2, 72 h, read-out: GI. On the technique in general: Sulforhodamine B stains cellular protein and so reports cell mass.
For test [28], the target named is Vascular endothelial growth factor receptor 2 (Homo sapiens) (UniProt P35968). Put plainly: Inhibition of purified KDR (unknown origin) at 0.1 uM after 60 mins by ELISA kinase assay.

Regarding `CNC(=O)c1ccccc1Nc1nc(Nc2nc3c(s2)CCNCC3)ncc1Cl`, the inhibition (as a rule, the percentage by which the read-out fell short of the control) was 73.9% in test [1]; 20.7% in [3]; 96% in test [4]; 81.5% in [6]; 60.1% in test [7]; 96% in test [8]. The inhibition in test [9] came out at 20.5%; in [10], 16.3%; in test [11] it was 63.2%; in test [12], 5.7%. Further, the negative-log IC50 (pIC50) (as a rule, the negative decadic logarithm of the IC50, by convention in mol/L) in test [2] was 7.21; in test [5], 7.70.
As to `CC(C)S(=O)(=O)c1ccccc1Nc1nc(Nc2nc3c(s2)CCN(C(=O)C2CCOCC2)CC3)ncc1Cl`, the inhibition in test [1] is 45.6%; in [3] it was 51.3%; in test [14], 0%; in [15], 15.8%; in test [16] it was 69.2%; in [17], “Dose-dependent effect”. Further, the inhibition entry in [19] is “Dose-dependent effect”; in test [20], 15.8%; in test [6], 77%; in test [7], 33.4%; in test [21], “Dose-dependent effect”; in test [8], 4.9%. Further, the inhibition in test [22] was 5.6%; in [23] it was “Dose-dependent effect”; in test [10] it was 0%; in test [24] it was 18%; in [11], 23%; in test [25], 53.5%. The inhibition turned out to be 100% in test [26], 52.8% in test [12] and 40.6% in [28]. Also, the results for the pIC50 in test [2] and in [13] were 7.91 and 7.62, respectively. For the same compound, the inhibition of growth at 1 µM in test [18] was determined as 84.1%. The inhibition of growth at 0.2 µM in test [27] amounted to 23.2%.
The compound `CCOC(=O)c1csc(Nc2ncc(Cl)c(Nc3ccccc3S(=O)(=O)C(C)C)n2)n1` showed a negative logarithm of the IC50 (pIC50) in test [2] of under 6.00.
For the compound `CCOC(=O)N1CCc2nc(Nc3ncc(Cl)c(Nc4ccccc4S(=O)(=O)C(C)C)n3)sc2CC1`, in test [18], the inhibition of growth at 1 µM came to 16.1%. In addition, the inhibition of growth at 0.2 µM in test [27] was 5.5%.
In turn, `COC(=O)c1csc(Nc2ncc(Cl)c(Nc3ccccc3S(=O)(=O)C(C)C)n2)n1` had a pIC50 in test [2] of under 6.00.
The same measure, in the same setting: under `CC(C)S(=O)(=O)c1ccccc1Nc1nc(Nc2nc3c(s2)CN(C)CC3)ncc1Cl` stands under 6.00.
For the compound `CC(C)S(=O)(=O)c1ccccc1Nc1nc(Nc2nc(C(=O)NCCN3CCOCC3)cs2)ncc1Cl`, the inhibition of growth at 1 µM in test [18] was 73.6%. The inhibition of growth at 0.2 µM in [27] worked out at 29.5%.
For `CC(C)S(=O)(=O)c1ccccc1Nc1nc(Nc2nc3c(s2)CCN(C(=O)CO)CC3)ncc1Cl`, in that order: 80.7% and 3.7%.
In [2], `CNC(=O)c1csc(Nc2ncc(Cl)c(Nc3ccccc3S(=O)(=O)C(C)C)n2)n1` had a pIC50 of under 6.00.
For the compound `CC(C)S(=O)(=O)c1ccccc1Nc1nc(Nc2nc(C(=O)N3C[C@H]4CN(C)C[C@H]4C3)cs2)ncc1Cl`, the inhibition of growth at 1 µM in test [18] turned out to be 61.4%. In addition, in [27], the inhibition of growth at 0.2 µM is -0.1%.
In test [2], `CC(C)S(=O)(=O)c1ccccc1Nc1nc(Nc2nc(C(=O)O)cs2)ncc1Cl` gave a pIC50 of under 6.00.
`CC(C)S(=O)(=O)c1ccccc1Nc1nc(Nc2nc3c(s2)CCN(CCN2CCOCC2)CC3)ncc1Cl`: in test [18], the inhibition of growth at 1 µM turned out to be 83.5%. In addition, in test [27], the inhibition of growth at 0.2 µM is 19.8%.
On to `COc1cc(NC(=O)c2csc(Nc3ncc(Cl)c(Nc4ccccc4S(=O)(=O)C(C)C)n3)n2)cc(OC)c1OC`, for which the pIC50 in test [2] is under 6.00.
Take `CC(C)S(=O)(=O)c1ccccc1Nc1nc(Nc2nc(C(=O)N3CC4CCC(C3)O4)cs2)ncc1Cl`: the inhibition of growth at 1 µM in test [18] was determined as 63.4%. For the same compound, the inhibition of growth at 0.2 µM in [27] came out at 18.4%.
Take `CC(C)S(=O)(=O)c1ccccc1Nc1nc(Nc2ncc(C(=O)N3C[C@H]4CN(C)C[C@H]4C3)s2)ncc1Cl`: in [2], the pIC50 is under 6.00.
Regarding `CC(C)S(=O)(=O)c1ccccc1Nc1nc(Nc2nc(C(=O)N3CC4(CCNCC4)C3)cs2)ncc1Cl`, the pIC50 in [2] is under 6.00.
Same read-out and setting: the result for `CC(C)S(=O)(=O)c1ccccc1Nc1nc(Nc2nc(C(=O)N3CCOCC3)cs2)ncc1Cl` reads under 6.00.
Regarding `CC(C)S(=O)(=O)c1ccccc1Nc1nc(Nc2nc3c(s2)CCN(C)CC3)ncc1Cl`, in test [18], the inhibition of growth at 1 µM was 67.7%. For the same compound, the inhibition of growth at 0.2 µM in test [27] was found to be 0.15%.
In turn, `CC(C)S(=O)(=O)c1ccccc1Nc1nc(Nc2nc3c(s2)CNCC3)ncc1Cl` had a pIC50 in test [2] of under 6.00.
`CC(C)S(=O)(=O)c1ccccc1Nc1nc(Nc2nc(C(=O)N3CCCCC3)cs2)ncc1Cl` gave a pIC50 in [2] of under 6.00.
In test [2], `CCCCOC(=O)c1csc(Nc2ncc(Cl)c(Nc3ccccc3S(=O)(=O)C(C)C)n2)n1` showed a pIC50 of under 6.00.
As for `CC(C)S(=O)(=O)c1ccccc1Nc1nc(Nc2nc3c(s2)CCN(CC2CCOCC2)CC3)ncc1Cl`, the inhibition of growth at 1 µM in [18] amounted to 59.9%. Besides, in test [27], the inhibition of growth at 0.2 µM is -13.7%.
